Results reported in paper PMC12051620, “Molecular basis underlying the specificity of an antagonist AA92593 for mammalian melanopsins” (The Journal of Biological Chemistry, 2025).

Assays:
[1] = test system: chicken Opn4-1 C94^2.61F/T188^ECL2S/A269^6.52S mutant; experiment: GsX GloSensor assay with Gsα/q11; format: cell-based; settings: 16.7 μM AA92593, COS-1 cells
Text: (§1) The GsX GloSensor assay using Gsα/q11 of Xenopus Opn4x and chicken Opn4-1 detected the light-dependent Gq activation in both non-mammalian-type melanopsins (Fig. 6, A and D). […] The ineffectiveness of AA92593 is consistent with the fact that Phe-94^2.61, Ser-188^ECL2, and Ser-269^6.52 are not conserved among non-mammalian-type melanopsins (Figs. 2A, S2 and S3). If these three residues are important for the antagonistic effect against melanopsins, the introduction of Phe-94^2.61/Ser-188^ECL2/Ser-269^6.52 into the non-mammalian-type melanopsins would make them susceptible to AA92593. As expected, the substitutions of C94^2.61F/T188S^ECL2/A269^6.52S in Xenopus Opn4x and chicken Opn4-1 increased their sensitivity to AA92593 by ∼49% and ∼22%, respectively (Fig. 6, B and E, G–I). […]
(§2) For GloSensor assay, opsins, GloSensor assay sensor (coded by pGlo-22F), and NanoBiT-tagged G proteins were transiently expressed in COS-1 cells (kindly provided from Dr David Farrens, Oregon Health and Science University) using PEI as described previously ([24], [52]). […] For GFP-fluorescence microscopy, a 35-mm cell culture dish (IWAKI) was transfected with 2 μg melanopsin-GFP plasmid and 8 μg PEI in 400 μl Opti-mem and 1.2 ml D-MEM. […]

[2] = test system: Xenopus Opn4x C94^2.61F/T188^ECL2S/A269^6.52S mutant; experiment: GsX GloSensor assay with Gsα/q11; format: cell-based; settings: 16.7 μM AA92593, COS-1 cells
Text: as §1, §2

What does the source list for `COc1ccc(S(=O)(=O)N2CCCCC2)cc1C` [AA92593]?
increase in sensitivity to AA92593 vs WT [1]: ~22%; increase in sensitivity to AA92593 vs WT [2]: ~49%
